Reference: PubChem BioAssay AID1117328 (Cheminformatics & Chemogenomics Research Group (CCRG), …, 2015)
Calls of active or inactive are those of the source. No rule for the calls is given here.

biological target: Ribosomal protein S6 kinase beta-1 (Homo sapiens) (UniProt P23443); assay: inhibition of human S6K1 enzyme activity – biochemical, LANCE Ultra TR-FRET (AID 1117328); conditions: LANCE Ultra TR-FRET kinase assay, p70S6K1; at 20 µM (top of the series)
Sequence (P23443 whole entry, looked up): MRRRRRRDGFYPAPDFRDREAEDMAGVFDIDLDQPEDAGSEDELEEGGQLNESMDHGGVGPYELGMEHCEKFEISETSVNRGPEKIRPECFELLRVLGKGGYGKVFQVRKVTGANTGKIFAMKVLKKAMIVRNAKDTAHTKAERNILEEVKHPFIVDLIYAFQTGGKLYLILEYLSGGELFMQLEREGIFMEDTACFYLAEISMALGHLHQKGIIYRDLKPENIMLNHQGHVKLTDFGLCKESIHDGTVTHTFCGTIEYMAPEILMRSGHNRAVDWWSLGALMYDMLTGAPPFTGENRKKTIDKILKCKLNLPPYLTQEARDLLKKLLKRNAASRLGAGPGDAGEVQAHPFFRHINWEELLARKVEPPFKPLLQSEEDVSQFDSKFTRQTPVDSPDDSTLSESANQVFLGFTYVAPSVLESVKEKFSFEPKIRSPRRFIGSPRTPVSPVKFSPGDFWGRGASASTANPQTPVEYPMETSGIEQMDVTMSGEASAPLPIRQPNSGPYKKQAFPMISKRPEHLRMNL

Row | Compound | inhibition
1 | COc1cc2c(c(OC)c1OC)-c1ccc(OC)c(=O)cc1[C@@H](NC(C)=O)CC2 | -2.55% (inactive)
2 | O=C(Nc1ccc([N+](=O)[O-])cc1Cl)c1cc(Cl)ccc1O | 49.9% (inactive)
3 | O=c1[nH]c(=O)n([C@H]2C[C@H](O)[C@@H](CO)O2)cc1F | -6.04% (inactive)
4 | CCN(CC)CCNc1ccc(CO)c2sc3ccccc3c(=O)c12 | 37.2%
5 | CC(=O)Oc1ccc(C2(c3ccc(OC(C)=O)cc3)Oc3ccccc3NC2=O)cc1 | -1.96% (inactive)
6 | C[n+]1c2cc(N)ccc2cc2ccc(N)cc21 (tested in a mixture with another compound) | 65.3%
7 | CCCCCCNC(=O)n1cc(F)c(=O)[nH]c1=O | -0.86% (inactive)
8 | O=c1[nH]c(=O)n([C@H]2C[C@H](O)[C@@H](CO)O2)cc1C(F)(F)F | 5.58% (inactive)
9 | Oc1c(I)cc(I)c2cccnc12 | 1.27% (inactive)
10 | COc1ccc(-c2ccc3cc(C(=O)O)ccc3c2)cc1C12CC3CC(CC(C3)C1)C2 | 29% (inactive)
11 | CCCCCCCCCCCCCCCCCCNC(=O)OC1CCN(C(=O)OC[C@H](COC(=O)N(Cc2cccc[n+]2CC)C(=O)c2ccccc2OC)OC)CC1 | -363% (inactive)
12 | CC(C)(C)C(=O)OCOP(=O)(COCCn1cnc2c(N)ncnc21)OCOC(=O)C(C)(C)C | -0.94% (inactive)
13 | Cc1cc2c(C(C)C)c(O)c(O)c(C=O)c2c(O)c1-c1c(C)cc2c(C(C)C)c(O)c(O)c(C=O)c2c1O | -7.01% (inactive)
14 | COCc1c(C(C)C)nc(C(C)C)c(/C=C/[C@@H](O)C[C@@H](O)CC(=O)O)c1-c1ccc(F)cc1 | 1.86% (inactive)
15 | COc1cccc2c1C(=O)c1c(O)c3c(c(O)c1C2=O)C[C@@](O)(C(C)=O)C[C@@H]3O[C@H]1C[C@H](N)[C@H](O)[C@H](C)O1 | -19.5% (inactive)
16 | Cc1cc(C)c(/C=C2\C(=O)Nc3ccccc32)[nH]1 | 45.3% (inactive)
17 | O=C(NOCC1CC1)c1ccc(F)c(F)c1Nc1ccc(I)cc1Cl | -1.64% (inactive)
18 | Nc1nc(=S)c2[nH]cnc2[nH]1 | 3.34% (inactive)
19 | C=C(C)[C@H]1Cc2c(ccc3c2O[C@@H]2COc4cc(OC)c(OC)cc4[C@@H]2C3=O)O1 | -6.37% (inactive)
20 | CCCCCCCCCCCCCCCC[n+]1ccccc1 | -110% (inactive)
21 | COC(=O)Nc1nc2ccc(S(=O)c3ccccc3)cc2[nH]1 (stereo not drawn) | -8.8% (inactive)

Row | Compound | inhibition
22 | CN1CC[C@H](c2c(O)cc(O)c3c(=O)cc(-c4ccccc4Cl)oc23)[C@H](O)C1 | 48.6% (inactive)
23 | CC(C)(C)C1CCC(CC2=C(O)c3ccccc3C(=O)C2=O)CC1 (stereo not drawn) | -2.09% (inactive)
24 | O=C1c2c(O)ccc(O)c2C(=O)c2c(NCCNCCO)ccc(NCCNCCO)c21 | 21.1%
25 | COC(=O)[C@H]1[C@H]2C[C@@H]3c4[nH]c5cc(OC)ccc5c4CCN3C[C@H]2C[C@@H](OC(=O)/C=C/c2ccc(O)c(OC)c2)[C@@H]1OC | 7.92% (inactive)
26 | CCN(CC)CCOc1ccc(/C(=C(\Cl)c2ccccc2)c2ccccc2)cc1 | 7.41% (inactive)
27 | Cc1ccccc1C(=O)Nc1ccc(C(=O)N2CCCC(N(C)C)c3ccccc32)cc1 (stereo not drawn) | -7.07% (inactive)
28 | Cc1cc(=O)c2c(O)c3c(O)cc(=O)c4c3c3c(cc(O)c1c23)C(C)(C)C=4O | 12.5% (inactive)
29 | CCN(CC)CCNC(=O)c1c(C)[nH]c(/C=C2\C(=O)Nc3ccc(F)cc32)c1C | 91.7%
30 | S=c1nc[nH]c2nc[nH]c12 | 22.2% (inactive)
31 | CCC(C)n1ncn(-c2ccc(N3CCN(c4ccc(OC[C@H]5CO[C@](Cn6cncn6)(c6ccc(Cl)cc6Cl)O5)cc4)CC3)cc2)c1=O (stereo partly drawn) | -9.45% (inactive)
32 | CC(=O)[C@]1(O)Cc2c(O)c3c(c(O)c2[C@@H](O[C@H]2C[C@H](N)[C@H](O)[C@H](C)O2)C1)C(=O)c1ccccc1C3=O | -128% (inactive)
33 | O=C(CCl)c1ccc(Cl)cc1Cl | -8.03% (inactive)
34 | CNC(=O)c1cc(Oc2ccc(NC(=O)Nc3ccc(Cl)c(C(F)(F)F)c3)cc2)ccn1 | 64.8%
35 | Cc1cc(O)c2ccccc2c1O | 39.1% (inactive)
36 | CCC1=C[C@@H]2CN(C1)Cc1c([nH]c3ccccc13)[C@@](C(=O)OC)(c1cc3c(cc1OC)N(C)[C@H]1[C@@](O)(C(=O)OC)[C@H](OC(C)=O)[C@]4(CC)C=CCN5CC[C@]31[C@@H]54)C2 | -0.16% (inactive)
37 | Cc1cc(C2CCCCC2)n(O)c(=O)c1 | -2.62% (inactive)
38 | C[C@@]12C(=O)OC(=O)[C@]1(C)C1CCC2O1 | 6.38% (inactive)
39 | COc1cc2nc(N3CCN(C(=O)c4ccco4)CC3)nc(N)c2cc1OC | 28.5% (inactive)
40 | CC(C)C[C@H](NC(=O)[C@H](Cc1ccccc1)NC(=O)c1cnccn1)B(O)O | 6.59% (inactive)
41 | COC(=O)Nc1nc2ccc(C(=O)c3cccs3)cc2[nH]1 | -23.9% (inactive)
42 | CCCN(CCC)C(=O)C(CCC(=O)OCCCN1CCN(CCOC(=O)Cc2c(C)n(C(=O)c3ccc(Cl)cc3)c3ccc(OC)cc23)CC1)NC(=O)c1ccccc1 (stereo not drawn) | -0.47% (inactive)

Row | Compound | inhibition
43 | CSc1ccc2c(c1)C(N1CCN(C)CC1)Cc1ccccc1S2 (stereo not drawn) | 6.51% (inactive)
44 | CCCCC1C(=O)N(c2ccccc2)N(c2ccc(O)cc2)C1=O (stereo not drawn) | 0.82% (inactive)
45 | CC[C@]1(O)C[C@@H]2CN(CCc3c([nH]c4ccccc34)[C@@](C(=O)OC)(c3cc4c(cc3OC)N(C)[C@H]3[C@@](O)(C(=O)OC)[C@H](OC(C)=O)[C@]5(CC)C=CCN6CC[C@]43[C@@H]65)C2)C1 | -1.14% (inactive)
46 | COc1cc([C@@H]2c3cc4c(cc3[C@H](O)[C@H]3COC(=O)[C@H]23)OCO4)cc(OC)c1OC | 3.8% (inactive)
47 | CCCCc1oc2ccccc2c1C(=O)c1cc(I)c(OCCN(CC)CC)c(I)c1 | -4.08% (inactive)
48 | CN(C)c1ccc2nc3ccc(=[N+](C)C)cc-3sc2c1 | -350% (inactive)
49 | [O-][n+]1ccccc1SSc1cccc[n+]1[O-] | -10.6% (inactive)
50 | COC(=O)Nc1nc2ccc(C(=O)C3CC3)cc2[nH]1 | 12.7% (inactive)
51 | COc1cc(-c2ccc(=O)[nH]n2)ccc1OC(F)F | 3.71% (inactive)
52 | CNC(=O)c1ccccc1Sc1ccc2c(/C=C/c3ccccn3)n[nH]c2c1 | -17.9% (inactive)
53 | Cc1ccc2nc(N)[nH]c(=O)c2c1Sc1ccncc1 | 50.1%
54 | Cc1nc(N)nc(N)c1-c1ccc(Cl)c(Cl)c1 | 5.16% (inactive)
55 | Cc1ccc(Nc2nccc(N(C)c3ccc4c(C)n(C)nc4c3)n2)cc1S(N)(=O)=O | 5.82% (inactive)
56 | O=C(CCCCCCC(=O)Nc1ccccc1)NO | 4.26% (inactive)
57 | CCCSc1ccc2nc(NC(=O)OC)[nH]c2c1 | -2.9% (inactive)
58 | Cn1cnc([N+](=O)[O-])c1Sc1ncnc2nc[nH]c12 | -0.72% (inactive)
59 | Oc1c(Cl)cc(Cl)c2cccnc12 | 8.07% (inactive)
60 | NC(=NCCCCCCN=C(N)/N=C(\N)Nc1ccc(Cl)cc1)/N=C(\N)Nc1ccc(Cl)cc1 | 29.9% (inactive)
61 | CCCCCCCCCCCCCC[N+](C)(C)C | 3.96% (inactive)
62 | Cc1nc(Nc2ncc(C(=O)Nc3c(C)cccc3Cl)s2)cc(N2CCN(CCO)CC2)n1 | 5.32% (inactive)
63 | Oc1c(Cl)cc(Cl)cc1Sc1cc(Cl)cc(Cl)c1O | 40.3% (inactive)

Row | Compound | inhibition
64 | O=c1c(-c2ccccc2)c1-c1ccccc1 | 5.11% (inactive)
65 | CC[C@@]1(O)C(=O)OCc2c1cc1n(c2=O)Cc2c-1nc1ccccc1c2/C=N/OC(C)(C)C | -2.02% (inactive)
66 | C=CC(=O)Nc1cc2c(Nc3ccc(F)c(Cl)c3)ncnc2cc1OCCCN1CCOCC1 | 10.8% (inactive)
67 | O=[N+]([O-])c1ccc(O)c2ncccc12 | 37.6% (inactive)
68 | CCCOc1ccc2nc(NC(=O)OC)[nH]c2c1 | -4.03% (inactive)
69 | Cc1ccc([N+](=O)[O-])[c]2c1[O][Hg]2 | 33.5% (inactive)
70 | CC(C)C[C@H](NC(=O)[C@H](CCc1ccccc1)NC(=O)CN1CCOCC1)C(=O)N[C@@H](Cc1ccccc1)C(=O)N[C@@H](CC(C)C)C(=O)[C@@]1(C)CO1 | -1.98% (inactive)
71 | CCc1nc(N)nc(N)c1-c1ccc(Cl)cc1 | 11.7% (inactive)
72 | COC(=O)c1nc(Cl)c(Cl)nc1N | 1.07% (inactive)
73 | COC(=O)Nc1nc2ccc(Sc3ccccc3)cc2[nH]1 | -5.93% (inactive)
74 | COc1c(C)c2c(c(O)c1C/C=C(\C)CCC(=O)OCCN1CCOCC1)C(=O)OC2 | 1.51% (inactive)
75 | CC[C@]1(O)C[C@H]2CN(CCc3c([nH]c4ccccc34)[C@@](C(=O)OC)(c3cc4c(cc3OC)N(C=O)[C@H]3[C@@](O)(C(=O)OC)[C@H](OC(C)=O)[C@]5(CC)C=CCN6CC[C@]43[C@@H]65)C2)C1 | 5.42% (inactive)
76 | O=C(O)c1ccc(-n2nc(-c3ccccc3O)nc2-c2ccccc2O)cc1 | 0.21% (inactive)
77 | Nc1ccc2cc3ccc(N)cc3nc2c1 | -285% (inactive)
78 | CC[C@@H]([C@H](C)O)n1ncn(-c2ccc(N3CCN(c4ccc(OC[C@@H]5CO[C@@](Cn6cncn6)(c6ccc(F)cc6F)C5)cc4)CC3)cc2)c1=O | -23% (inactive)
79 | COc1ccc2cc1Oc1ccc(cc1)C[C@H]1c3c(cc4c(c3Oc3cc5c(cc3OC)CCN(C)[C@@H]5C2)OCO4)CCN1C | -3.96% (inactive)
80 | COc1ccc(-c2nc3ccc(C4=NNC(=O)CC4C)cc3[nH]2)cc1 (stereo not drawn) | -32.5% (inactive)
81 | COc1cc(NCc2ccc3nc(N)nc(N)c3c2C)cc(OC)c1OC | 38% (inactive)
82 | COC(=O)Nc1nc2ccc(C(=O)c3ccccc3)cc2[nH]1 | -18.7% (inactive)
83 | Cc1nc2ccc(CN(C)c3ccc(C(=O)N[C@@H](CCC(=O)O)C(=O)O)s3)cc2c(=O)[nH]1 | 26.6% (inactive)
